Data: PubChem BioAssay AID608 (Sanford-Burnham Center for Chemical Genomics, 2007)
Active and inactive are the calls of the source. No rule for the calls is given here.

Target: Peptidyl-prolyl cis-trans isomerase FKBP1A (Homo sapiens) (UniProt P62942)
Experiment: small-molecule binding to FKBP12 – biophysical, NMR detection (AID 608)
Conditions: purified FKBP12

Peptidyl-prolyl cis-trans isomerase FKBP1A (Homo sapiens), sequence (P62942 whole entry, looked up): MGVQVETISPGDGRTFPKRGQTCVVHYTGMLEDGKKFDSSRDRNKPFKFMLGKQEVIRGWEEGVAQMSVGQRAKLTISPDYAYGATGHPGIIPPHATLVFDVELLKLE

C[C@H]1O[C@@H](O[C@H]2[C@@H](O)C[C@H](O[C@H]3[C@@H](O)C[C@H](O[C@H]4CC[C@]5(C)C6CC[C@]7(C)[C@@H](C8=CC(=O)OC8)CC[C@]7(O)C6CC[C@@H]5C4)O[C@@H]3C)O[C@@H]2C)C[C@H](O)[C@@H]1O (some centres not stated)
Kd: > 4 mM (inactive)

O=C(c1ccccc1)N1CCOCC1
Kd: > 4 mM (inactive)

COC(=O)c1ccc2ncccc2c1
Kd: > 4 mM (inactive)

N[C@@H](C(=O)O)[C@@H](O)[C@H](O)[C@H](O)CO
Kd: > 4 mM (inactive)

CC(C)(C#N)O[C@@H]1O[C@H](CO)[C@@H](O)[C@H](O)[C@H]1O
Kd: > 4 mM (inactive)

COc1ccc(-c2cc(=O)c3c(OC)c(OC)c(OC)c(OC)c3o2)cc1
Kd: > 4 mM (inactive)

O=C(O)c1cccc2c1OCCO2
Kd: > 4 mM (inactive)

CCn1ccc(C(=O)Nc2nccs2)n1
Kd: > 4 mM (inactive)

Nc1cccc2nsnc12
Kd: > 4 mM (inactive)

COc1c(C(C)C)oc2cc3oc(=O)ccc3cc12
Kd: > 4 mM (inactive)

Nc1ccc2[nH]ncc2c1
Kd: > 4 mM (inactive)

NCC1COc2ccccc2O1 (configuration not stated)
Kd: > 4 mM (inactive)

Cc1cc(=O)cc(C)n1-c1ccccc1N
Kd: > 4 mM (inactive)

Nc1cc(N)nc(SCc2cccnc2)n1
Kd: > 4 mM (inactive)

O=C(CSc1ccc2ccccc2c1)N1CCOCC1
Kd: 0.18 mM

Nc1ccc2nsnc2c1
Kd: > 4 mM (inactive)

COc1ccc(/C=C2\NC(=S)N(C)C2=O)cc1O
Kd: > 4 mM (inactive)

O=c1c2ccccc2nc2n1CCC2O (configuration not stated)
Kd: > 4 mM (inactive)

NC(CSCSCC(N)C(=O)O)C(=O)O (configuration not stated)
Kd: > 4 mM (inactive)

Cc1cc(Cl)ccc1NC(=O)C(N)=O
Kd: > 4 mM (inactive)

CCCCCc1c2c(cc(O)c1C(=O)O)OC(=O)c1c(cc(OC)cc1C(=O)CCCC)O2
Kd: > 4 mM (inactive)

O=C(OCc1c(Cl)cccc1Cl)c1cnccn1
Kd: > 4 mM (inactive)

CCOc1ccccc1C(=O)NC1=NCCS1
Kd: > 4 mM (inactive)

NC(=O)Cc1nc2ccccc2[nH]1
Kd: > 4 mM (inactive)

O=C1C2C3CCC(O3)C2C(=O)N1c1ccccc1 (configuration not stated)
Kd: > 4 mM (inactive)

O=C(O[C@@H]1Cc2c(O)cc(O)cc2O[C@@H]1c1cc(O)c(O)c(O)c1)c1cc(O)c(O)c(O)c1
Kd: > 4 mM (inactive)

CC(=O)O[C@]1(C)CC[C@@]23CC1C(C)(C)[C@@H]2CC[C@H]3C
Kd: > 4 mM (inactive)

Fc1ccc(N2CCNCC2)cc1
Kd: > 4 mM (inactive)

COC(=O)CCSCC(=O)Nc1nccs1
Kd: > 4 mM (inactive)

NCC(=O)c1ccccc1
Kd: > 4 mM (inactive)

Cc1cc(=O)n(CC(C)C)c(O)c1C#N
Kd: > 4 mM (inactive)

Cc1cc(NC(=O)c2cccc(S(C)(=O)=O)c2)no1
Kd: > 4 mM (inactive)

NCCc1cnc[nH]1
Kd: > 4 mM (inactive)

C=C(C)C1CC=C(CO)CC1 (configuration not stated)
Kd: > 4 mM (inactive)

CC(=O)Oc1c2c(c(CC=C(C)C)c3c1C(=O)C1=C[C@@H]4CC5C(C)(C)OC(C/C=C(\C)C(=O)O)(C4=O)[C@@]15O3)OC(C)(CCC=C(C)C)C=C2 (some centres not stated)
Kd: > 4 mM (inactive)

Nc1nnc(SCc2ccccc2Cl)s1
Kd: > 4 mM (inactive)

CCCS(=O)(=O)N1CCN(c2ccccn2)CC1
Kd: > 4 mM (inactive)

Cc1ccccc1NC(=O)CC1NCCNC1=O (configuration not stated)
Kd: > 4 mM (inactive)

O=C(CSc1ccnc(=O)[nH]1)NCc1ccccc1
Kd: > 4 mM (inactive)

O=C1C2C3C=CC(C3)C2C(=O)N1CCCO (configuration not stated)
Kd: > 4 mM (inactive)

COc1cc(OC)c2c(=O)c(O)c(-c3ccc(OC)c(OC)c3)oc2c1
Kd: > 4 mM (inactive)

O=C(O)c1cc(O)c(O)c(O)c1
Kd: > 4 mM (inactive)

O=c1c(O)c(-c2ccccc2)oc2ccccc12
Kd: > 4 mM (inactive)

O=C(Nc1ccon1)c1ccccc1Cl
Kd: > 4 mM (inactive)

Cc1ccccc1CSc1nnc(C)n1N
Kd: > 4 mM (inactive)

Cc1cc(C)nc(/N=C(/N)Nc2cccc(F)c2)n1
Kd: > 4 mM (inactive)

O=C(C1CCNCC1)N1CCCCCC1
Kd: > 4 mM (inactive)

O=c1oc2ccccc2cc1O
Kd: > 4 mM (inactive)

Cn1c(=O)n(CC(=O)N2CCOCC2)c2ccccc21
Kd: > 4 mM (inactive)

COC(=O)c1[nH]c2ccccc2c1C(=O)OC
Kd: > 4 mM (inactive)

O=c1[nH]c(=S)c2c(n1-c1ccccc1)CCC2
Kd: > 4 mM (inactive)

C(=N\c1nccs1)/c1cccnc1
Kd: > 4 mM (inactive)

c1ccc(-n2ncc3c(NCc4ccco4)ncnc32)cc1
Kd: > 4 mM (inactive)

Cc1cc(O)c(C=O)c(O)c1C(=O)O
Kd: > 4 mM (inactive)

CCn1c(-c2ccccc2)n[nH]c1=S
Kd: > 4 mM (inactive)

CCCCCC1C(=O)CCC1CC(=O)O (configuration not stated)
Kd: > 4 mM (inactive)

Cc1nc2ccccc2c2c1C(=O)N(C)C2=O
Kd: > 4 mM (inactive)

CCn1c(C)c(C(C)=O)c(N2CCN(C)CC2)nc1=S
Kd: > 4 mM (inactive)

Cc1sc2nc(-c3ccco3)oc(=O)c2c1C
Kd: > 4 mM (inactive)

CN(C)C(=S)Nc1nc2ccccc2s1
Kd: 0.152 mM

CC1CN(C2=NCCN2)CC(C)O1 (configuration not stated)
Kd: > 4 mM (inactive)

Cc1cc(N)n(C2CCOC(C)(C)C2)n1 (configuration not stated)
Kd: > 4 mM (inactive)

O=C1C(=O)N(CN2CCN(CCO)CC2)c2ccccc21
Kd: > 4 mM (inactive)

Cc1cccc(N2CCN(C(=O)c3ccncc3)CC2)c1C
Kd: > 4 mM (inactive)

NC(=O)c1ccc(-c2ccccn2)s1
Kd: > 4 mM (inactive)

Cc1ccccc1NC(=O)CSc1ccnc(=O)[nH]1
Kd: > 4 mM (inactive)

COC(=O)C1CCN(c2ccc(Cl)nn2)CC1
Kd: > 4 mM (inactive)

O=C(Nc1cccc(Cl)c1)c1cnn2cccnc12
Kd: > 4 mM (inactive)

O=C(O)c1ccc(-c2cnco2)cc1
Kd: > 4 mM (inactive)

CN(C)S(=O)(=O)NCc1ccc2c(c1)OCO2
Kd: > 4 mM (inactive)

CCn1cnc(C(=O)NC)c1C(=O)NC
Kd: > 4 mM (inactive)

CCN(CC)S(=O)(=O)c1cccc2nsnc12
Kd: > 4 mM (inactive)

Oc1ccc(C(=S)N2CCOCC2)cc1
Kd: > 4 mM (inactive)

Cc1nnc(NCCCO)[nH]c1=O
Kd: > 4 mM (inactive)

COc1ccc(N2C(=O)CCC2=O)c(OC)c1
Kd: > 4 mM (inactive)

CCSc1nc(C)c(CC)c(C)c1C(N)=O
Kd: > 4 mM (inactive)

COCc1cc(C)nc2sc(C(=O)OC)c(N)c12
Kd: > 4 mM (inactive)

O=c1c(-c2ccccc2)coc2cc(O)cc(O)c12
Kd: > 4 mM (inactive)

NS(=O)(=O)c1ccc(N=C2NC(=O)CS2)cc1
Kd: > 4 mM (inactive)

Cc1cccc(OCc2nnc(N)s2)c1
Kd: > 4 mM (inactive)

CC(C)=CCCC1(C)C=Cc2c(O)c3c(c(CC=C(C)C)c2O1)OC12C(=CC4CC1C(C)(C)OC2(C/C=C(/C)C(=O)O)C4=O)C3=O (configuration not stated)
Kd: > 4 mM (inactive)

CC12CCC(O)CC1CCC1C2[C@H](O)CC2(C)C(C3=CC(=O)OC3)CCC12O (some centres not stated)
Kd: > 4 mM (inactive)

O=C(O)CCC(=O)c1cccc2ccccc12
Kd: > 4 mM (inactive)

N=C1/C(=C\c2ccco2)C(=O)N=C2SC=NN12
Kd: > 4 mM (inactive)

c1ccc(C2NCCc3[nH]cnc32)cc1 (configuration not stated)
Kd: > 4 mM (inactive)

O=C1NC(=O)/C(=C\c2ccncc2)S1
Kd: > 4 mM (inactive)

Nc1c(Nc2ccccc2)c2ccccc2oc1=O
Kd: > 4 mM (inactive)

Cn1cccc1C(=O)NS(=O)(=O)c1ccccc1Cl
Kd: > 4 mM (inactive)

OCc1cc(-c2cccs2)on1
Kd: > 4 mM (inactive)

Cc1cc(CN2C(=O)c3ccccc3C2=O)on1
Kd: > 4 mM (inactive)

CS(=O)(=O)c1ccc(N)cc1
Kd: > 4 mM (inactive)

COc1ccc2cc1Oc1ccc(cc1)C[C@H]1c3cc(c(OC)cc3CCN1C)Oc1c(OC)c(OC)cc3c1[C@H](C2)N(C)CC3
Kd: > 4 mM (inactive)

NC1=NC(=O)/C(=C/c2ccccc2[N+](=O)[O-])S1
Kd: > 4 mM (inactive)

CCOC(=O)C1CCN(Cc2ccccc2)CC1=O (configuration not stated)
Kd: > 4 mM (inactive)

C[n+]1ccc(C(=O)[O-])cc1
Kd: > 4 mM (inactive)

c1cc2c(cc1[C@H]1OC[C@H]3[C@@H]1CO[C@H]3c1ccc3c(c1)OCO3)OCO2
Kd: > 4 mM (inactive)

Cn1nc(C(=O)N2CCCC2)c2ccccc2c1=O
Kd: > 4 mM (inactive)

O=C(Nc1cccnc1)c1ccc(Br)s1
Kd: > 4 mM (inactive)

CN(c1ccccc1C(=O)N1CCOCC1)S(C)(=O)=O
Kd: > 4 mM (inactive)

COc1cc2c3cc1Oc1cc(ccc1O)C[C@@H]1c4c(cc(OC)c(O)c4Oc4ccc(cc4)C[C@@H]3N(C)CC2)CC[N+]1(C)C
Kd: > 4 mM (inactive)

CC(C)c1ccc(NC(=O)C(N)=O)cc1
Kd: > 4 mM (inactive)

Cn1c(=O)n(C)c2nc([N+](=O)[O-])c(Cl)cc21
Kd: > 4 mM (inactive)

COc1ccc(-c2ccc(=O)n(CC(N)=O)n2)cc1
Kd: > 4 mM (inactive)

C[N+](C)(C)CC(=O)[O-]
Kd: > 4 mM (inactive)

CC(=O)N1CCN(S(=O)(=O)c2ccccc2)CC1
Kd: > 4 mM (inactive)

CC1=C2C(=CO[C@H](C)[C@H]2C)C(=O)C(C(=O)O)=C1O
Kd: > 4 mM (inactive)

O=C1C2CC=CCC2C(=O)N1c1cccc(O)c1 (configuration not stated)
Kd: > 4 mM (inactive)

O=P(c1ccccc1)(c1ccccc1)C1CCOCC1
Kd: > 4 mM (inactive)

O=C(c1cccs1)N1CCCc2ccccc21
Kd: > 4 mM (inactive)

CC1SC(=NC(=O)c2ccco2)NC1=O (configuration not stated)
Kd: > 4 mM (inactive)

Cc1ccc(N2C(=O)CC(=O)NC2=O)cc1
Kd: > 4 mM (inactive)

O=c1c[n+]([O-])c2ccccc2n1OCc1ccccn1
Kd: > 4 mM (inactive)

COc1nc(-c2ccccc2)ccc1-c1noc(C)n1
Kd: > 4 mM (inactive)

CC(=O)Oc1ccc2c(c1OC(C)=O)OCC1(O)Cc3c(cc(OC(C)=O)c(OC(C)=O)c3OC(C)=O)C21 (configuration not stated)
Kd: > 4 mM (inactive)

Cc1ccc(C)n1CCN1CCNCC1
Kd: > 4 mM (inactive)

O=C(CN1CCOCC1)Nc1nccs1
Kd: > 4 mM (inactive)

CC(=O)OC/C=C(\C)CC/C=C(\C)CC/C=C(\C)CC/C=C(\C)CC/C=C(\C)CC/C=C(\C)CC/C=C(\C)CC/C=C(\C)CCC=C(C)C
Kd: > 4 mM (inactive)
